Here are results for 2 compounds from patent publication US20050026810A1, “Treatment of male sexual dysfunction” (Pfizer Inc., priority 2003, published 2005).

Series [1] is described as follows: Plasma concentration in the copulatory behaviour study. To be noted: 0.05 mgkg^-1 sc, rats. The class given is in vivo, rat.
The test system of series [2] is copulatory behaviour in conscious rats. In words: Copulatory behaviour in conscious rats (ejaculatory latency). The class given is in vivo, rat. Particulars: 0.05 mgkg^-1 sc. The method, then:
For all the sexual behavour tests, the male rats were placed in an observation arena (50-60 cm diameter), starting 5 hours into the dark cycle and observed under red ilumination. Three to four minutes after placing the male in the arena, a receptive female (ovariectomised, oestradiol benzoate/progesterone injection 48 hour before behavioural study) was introduced into the arena and the following parameters noted: • i) ejaculatory latency (EJL; time taken from addition of receptive female into the arena to ejaculation); • ii) copulatory efficiency (CE; ejaculatory latency/the number of ihtromissions to ejaculation, i.e. the number of seconds between intromissions); • iii) intromission frequency (IF; the number of intromissions to ejaculation); • iv) mount frequency (MF; the number of mounts to ejaculation); • v) post ejaculatory interval (PEI; the time taken from ejaculation to the commencement of copulatory behaviour).
Rodent copulatory behaviour is characterised by a series of mounts, with and without vaginal insertion (50-80% of mounts result in intromission [vaginal penetration]) and ejaculation occurs after 6 to 12 intromissions. Each intromission lasts a matter of seconds—it is not possible to quantify intromission length i.e. intravaginal latency. The effect of L-371257 was assessed on a number of copulatory parameters (see above). We have focused ejaculatory latency as a clinical biomarker of time taken to achieve ejaculation.

The target of series [3] is vasopressin V1a receptors (Rattus norvegicus, UniProt P30560). To be noted: cited from earlier work.
The target in another series is oxytocin receptors. To be noted: read-out: OT; cited from earlier work.
In series [4] the test system is PCA-induced ejaculation in anaesthetised rats. As to the kind of experiment: p-chloroamphetamine (PCA)-induced ejaculation and penile erection in anaesthetised rats. Type of series: in vivo, rat. As to the method: In order to study penile; erection and ejaculation the method used was based on the methodology taught in Yonezawa et al. (2000) Life Sciences 67, 3031-3039. For ease of reference, this methodology is described below:
Male Sprague Dawley rats, weighing 350-450 g, are used. Prior to the experiments the animals are housed in groups (2 rats per cage) under controlled 12 h light-dark cycle (lights on at 07:00), constant temperature (23±1° C.) and humidity (55±5%). They have free access to standard food pellets and water.
Rats are anesthestised with sodium pentobarbitone (50 mg/kg, i.p.) and are placed in the supine position. The penis is extruded from its sheath and gently held by a wooden applicator positioned at the base of the penis. The test compounds are administered by intravenous infusion and p-chloroamphetamine (PCA) (5-10 mg/kg) is administered i.p. immediately before the sheath retraction and the penile responses, including penile erection, redding and expansion of the penile body, glans erection, engorgement and slight flaring of the glans and cup, glans erection with intense flaring of the glans, are recorded. Latencies from PCA administration to the initial penile response and ejaculation is also measured in seconds.
The effect of a test compound on p-chloroamphetamine (PCA) induced ejaculation is also assessed by weighing the ejaculates accumulated over 30 mins. A suitable method using conscious rats is described in Renyi (1985) Neuropharmacology, Vol. 24. No. 8, pp 697-704.

“And” between values parts separate entries of the source, which are not always exact repeats. Identical values can stand only once.

Chain of vasopressin V1a receptors (P30560 whole entry): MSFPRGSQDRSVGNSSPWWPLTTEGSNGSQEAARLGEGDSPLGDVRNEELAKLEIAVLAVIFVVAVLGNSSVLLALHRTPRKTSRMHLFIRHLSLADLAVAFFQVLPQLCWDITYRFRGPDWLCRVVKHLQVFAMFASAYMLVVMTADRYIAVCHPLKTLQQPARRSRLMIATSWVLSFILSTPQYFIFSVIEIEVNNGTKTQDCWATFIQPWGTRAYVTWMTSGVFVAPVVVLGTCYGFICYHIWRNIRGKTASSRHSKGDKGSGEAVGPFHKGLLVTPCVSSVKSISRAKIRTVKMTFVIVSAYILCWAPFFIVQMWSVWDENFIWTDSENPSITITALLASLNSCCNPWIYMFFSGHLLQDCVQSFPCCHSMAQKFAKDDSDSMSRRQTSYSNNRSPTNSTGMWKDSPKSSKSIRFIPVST

As for `COc1cc(OC2CCN(C(C)=O)CC2)ccc1C(=O)N1CCC(N2C(=O)OCc3ccccc32)CC1` [L-371,257], the Plasma conc in series [1] was around 30 nM. Moreover, in series [2], the “other effects on copulatory behaviour” value is “no other significant effects”. Moreover, the “increase of ejaculatory latency” value in series [2] (P<0.05 vs vehicle) is 67%. Also, in series [2] (plasma conc ~30 nM, mean ± sem, n = 8), the Ejaculatory latency is 266 s and 266.4 ± 30.9 s. Besides, the results for the Ki (in series [3]; at oxytocin receptors) were 3.7 nM and 19 nM, respectively.

For the compound `COC1CCN(Cc2nnc(C3CCN(c4ccccn4)CC3)n2Cc2ccccc2)CC1` [Compound 1, 4-[4-Benzyl-5-(4-methoxy-piperidin-1-ylmethyl)-4H-[1,2,4]triazol-3-yl]-3,4,5,6-tetrahydro-2H-[1,2′]bipyridinyl], the “time taken for the rats to achieve erection” value in series [4] (anaesthetised rats, PCA) is “not significantly affected”. The “Ejaculation delayed (near maximal effect)” value in series [4] (free plasma concentration 30.9 nM, intravenous infusion, anaesthetised rats) stood at 100%. In addition, the “ejaculation and penile erection, in words” value in series [4] (plasma conc 11.4 nM and 30.9 nM) is listed as “* At both of these concentrations Compound 1 delayed ejaculation without affecting penile erection”. Moreover, the “effect on PCA-induced ejaculation” value in series [4] (plasma concentration of 9-31 nM, anaesthetised rats) is on record as “significantly delayed”.
